Assay results as given in patent US9096538B2, “Pharmaceutical comprising PPAR agonist” (Senju Pharmaceutical Co., Ltd., priority 2005, dated 2015).

Experiments:
[1] = tested on: rabbit corneal epithelial cell; assay: Test Example 1: increase in cell number, cultured rabbit corneal epithelial cell (Cell Counting Kit-8); assay type: cell-based; conditions: 48 hours, no addition group = 100%, average ± standard deviation, N = 5
Method: A male rabbit (Japanese white, […] LABES Co., Ltd.) was used. The experimental animal was used according to the International Guiding Principles for Biomedical Research Involving Animals.
A corneal epithelial cell was prepared from rabbit eyeballs. A cornea was excised from isolated eyeballs, and stored in Dulbecco's phosphate buffered saline (D-PBS; Invitrogen), and this was transferred to a clean bench. The following cell preparation procedures were all performed sterilely.
The isolated corneal segment was washed with D-PBS with 1% penicillin-streptomycin (Invitrogen) added thereto three times, and was transferred to a minimum essential medium (MEM; Invitrogen). A corneal endothelial cell and a Descemet's membrane of the corneal segment immersed in MEM were peeled with a knife (Alcon) for ocular operation, and the corneal segment (corneal stroma and corneal epithelium) after peeling was transferred to MEM to which dispase II (Roche Diagnostics) had been added to 2.4 U/mL. This was incubated at 37° C. for 1 hour and, thereafter, the dispase II-treated corneal segment was transferred to MEM. The corneal epithelium of the corneal segment immersed in MEM was peeled with the knife for ocular operation, and the corneal segment residue (corneal stroma) was removed from MEM. The peeled corneal epithelial cell and the MEM containing same were recovered in a 50 mL centrifuge tube, subjected to centrifugation at 1,500 rpm for 5 minutes at room temperature. The supernatant was discarded to give a corneal epithelial cell layer. To the corneal epithelial cell layer was added 1 mL of trypsin-EDTA (Invitrogen) and, after thorough mixing, the cells were incubated at 37° C. for 5 minutes to dissociate adhesion between the cells. To this was added 9 mL of MEM containing 10% fetal bovine serum (FBS; Invitrogen) to stop the enzymatic reaction, and this was subjected again to centrifugation at room temperature and 1,500 rpm for 5 minutes to obtain the corneal epithelial cell layer. To the resulting corneal epithelial cell layer was added […] of a serum-free liquid medium for proliferating a normal rabbit corneal epithelial cell (RCGM2; Kurabo Industries LTD.) to suspend the cell, and this was seeded into a culture dish (IWAKI) for culturing a cell having a diameter of 10 cm, to which 9 mL of RCGM2 had been added. […] The culture medium was exchanged with a fresh culture medium every 48 hours until the test day.
As the test substance, the following compounds were used. • PPARα agonist: WY-14643 (Calbiochem) and fenofibrate (Sigma-Aldrich) • PPARδ agonist: L-165041 (Sigma-Aldrich)
(§1) For studying the effect of promoting cell proliferation by each test substance, a culture medium prepared by removing a mouse-derived epithelial growth factor (mEGF) attached to RCGM2, from RCGM2, was used as a basal medium, while as a positive control for confirming the effect of promoting cell proliferation, a medium with an mEGF added thereto (basal medium+10 ng/mL mEGF) was used according to instructions of an RCGM2 preparation protocol.
As a culture dish for a test of cell proliferation promotion, a 96-well culture dish for tissue culture (Corning) was used. On the day before the test, each 50 μL of 0.01% type I collagen (Nitta Gelatin Inc.) was dispensed into each well of the culture dish, and coating was performed at 4° C. until immediately before the test. On the test day, after a type I collagen solution was removed, the bottom of the culture dish was washed three times using D-PBS, and this was used in the test as a collagen-treated culture dish.
In the test, a rabbit corneal epithelial cell which had been cultured to subconfluent in a culture dish having a diameter of 10 cm was used. After the culture medium was removed, the bottom of the culture dish was washed two times using D-PBS, to this was added 1 mL of trypsin-EDTA, this was incubated at 37° C. for 5 minutes and thereby, the cell was peeled from the bottom of the culture dish. […]

[2] = tested on: rabbit corneal epithelial cell; assay: Test Example 2: increase in cell number, cultured rabbit corneal epithelial cell, 120 hours (Cell Counting Kit-8); assay type: cell-based; conditions: no addition group = 100%, average ± standard deviation, N = 5
Method: A male rabbit (Japanese white, weight: about 1.5 kg, […] LABES Co., Ltd.) was used. The experimental animal was used according to the International Guiding Principles for Biomedical Research Involving Animals.
A rabbit corneal epithelial cell was prepared using the same process as that of (Test example 1).
As the test substance, the following compounds were used. • PPARδ agonist: L-165041 (Sigma-Aldrich) and GW-501516 (Alexis)
as §1
Collagen treatment of the culture dish was performed using the same process as that of (Test Example1).
In the test, a rabbit corneal epithelial cell which had been cultured to subconfluent in a culture dish having a diameter of 10 cm was used. After the culture medium was removed, the bottom of the culture dish was washed two times using D-PBS, to this was added 1 mL of trypsin-EDTA, this was incubated at 37° C. for 5 minutes and thereby, the cell was peeled from the bottom of the culture dish. After incubation, 9 mL of MEM containing 10% FBS was added to the culture dish to stop the enzymatic reaction, and this was subjected to centrifugation at room temperature and 1,500 rpm for 5 minutes to obtain a corneal epithelial cell layer. To the resulting cell was added an appropriate amount of RCGM2 to a cell concentration of 1×10^5 cells/mL to suspend the cell. Each 64 μL of this cell suspension was dispensed in each well at the cell number per bottom area (0.32 cm^2) of the collagen-treated 96-well culture dish for tissue culture of […]. […] After 24 hours from cell seeding, the culture medium was discarded, and each 100 μL of the following culture media were freshly dispensed into each well of the culture dish. • [1] Only basal medium (no addition group) • [2] Basal medium+mEGF (final concentration: 10 ng/mL; positive control group) • [3] Basal medium+L-165041 (final concentration: 0.1 μM and 1 μM) • [4] Basal medium+GW-501516 (final concentration: 0.01 μM and 0.1 μM)
The culture supernatant of each well was removed every 48 hours from exchange of the culture medium containing a test substance, and each 100 μL of the freshly prepared culture medium was dispensed into each well.

In the case of `CCCc1c(OCCCOc2ccc(OCC(=O)O)cc2)ccc(C(C)=O)c1O` [L-165041, (4-(3-(4-acetyl-3-hydroxy-2-propyl)phenoxy)propoxyphenoxy)acetic acid], the “Cell proliferation (%)” value ([1]; 10^−6 M) is reported as 182.2 ± 13.0%, the “Cell proliferation (%)” value ([1]; 10^−7 M) is reported as 163.3 ± 8.2% and the “Cell proliferation (%)” value ([2]; 10^−6 M) is reported as 198.6 ± 26.7%. The “Cell proliferation (%)” value ([2]; 10^−7 M) was 242.5 ± 36.2%.
